Marks after values point to notes of the source that are not given here.
Experiments:
Parameters in all cases: species or system Sprague–Dawley rats
Conditions in all cases: rat, in vivo
[1] = Comparison of predicted doses across the eight dosimetry models and radiotracers
Experimental: Time-activity curves for each source organ, whole-body and remainder of the body were plotted. […] Residence times (τ) were determined for each radiotracer in source organs, whole-body and remaining (any activity assigned to the whole-body but not assigned to a source organ). Each preclinical source organ’s τ was determined by calculating the area under its respective time-activity curve (activity normalised to the percentage maximum injected dose as a function of time) using the trapezoid method. […] From each individual animal, eight dosimetry models were constructed from all possible combinations of image reconstruction method (FBP or iterative), τ (non-normalised or normalised to human organ masses), and sex of phantom (male or female). All graphs and statistical analyses were generated and performed in GraphPad Prism 5.01 (GraphPad Software Inc., California, USA). One-way ANOVA followed by a Dunnett’s multiple comparison post-hoc test with [^18F]FDG as the control was used to determine which novel radiotracers’ biodistribution and dosimetry differed from [^18F]FDG in the same organs. All statistical tests used α = 0.05 as the measure for statistical significance. Bland–Altman plots were calculated as previously described[33],[34].

[2] = OLINDA/EXM predicted clinical doses: adult female phantom, non-normalised τ, FBP
Experimental: (§1) PET studies were reconstructed using filtered-back projection (FBP) and Mediso’s iterative Tera-Tomo 3D reconstruction algorithm with the following settings: 4 iterations, 6 subsets, full detector model, normal regularization, spike filter on, voxel size 0.4 mm and 400‒600 keV energy window. PET data were corrected for randoms, scatter and attenuation. Time-activity curves for each source organ, whole-body and remainder of the body were plotted. […] Residence times (τ) were determined for each radiotracer in source organs, whole-body and remaining (any activity assigned to the whole-body but not assigned to a source organ). Each preclinical source organ’s τ was determined by calculating the area under its respective time-activity curve (activity normalised to the percentage maximum injected dose as a function of time) using the trapezoid method. […] From each individual animal, eight dosimetry models were constructed from all possible combinations of image reconstruction method (FBP or iterative), τ (non-normalised or normalised to human organ masses), and sex of phantom (male or female). Supplementary table 6. Predicted clinical absorbed organ doses and whole-body effective doses of PET radiotracers using non-normalised (preclinical) adult female source organ residence times from filtered backprojection reconstructions.

[3] = OLINDA/EXM predicted clinical doses: adult male phantom, normalised τ, iterative
Experimental: as §1, with “table 11.” for “table 6.”, “using normalised” for “using non-normalised (preclinical)”, “adult male” for “adult female”, “from iterative” for “from filtered backprojection”

[4] = OLINDA/EXM predicted clinical doses: adult female phantom, normalised τ, FBP
Experimental: as §1, with “8.” for “6.”, “normalised” for “non-normalised (preclinical)”

Which results are given for “NOTA-RGDfK [existing Al^18F-labelled NOTA-RGDfK peptide PET radiotracer; precursor NOTA-RGDfK (1)]”?
organs predicted to receive the highest absorbed doses (ranking) [1]: urinary bladder > LLI wall > kidneys; Effective Dose (mSv/MBq), Average ± SD [2]: 6.49E-02 mSv/MBq; Estimated Absorbed Dose of Organ, Average: Adrenals [2]: 1.46E-02 mGy/MBq; Estimated Absorbed Dose of Organ, Average: Brain [2]: 3.20E-03 mGy/MBq; Estimated Absorbed Dose of Organ, Average: Breasts [2]: 1.01E-02 mGy/MBq; Estimated Absorbed Dose of Organ, Average: Gallbladder Wall [2]: 1.49E-02 mGy/MBq; Estimated Absorbed Dose of Organ, Average: Heart Wall [2]: 9.41E-03 mGy/MBq; Estimated Absorbed Dose of Organ, Average: Kidneys [2]: 2.70E-02 § mGy/MBq; Estimated Absorbed Dose of Organ, Average: LLI Wall [2]: 1.62E-01 ‡ mGy/MBq; Estimated Absorbed Dose of Organ, Average: Liver [2]: 9.39E-03 mGy/MBq; Estimated Absorbed Dose of Organ, Average: Lungs [2]: 7.79E-03 mGy/MBq; Estimated Absorbed Dose of Organ, Average: Muscle [2]: 1.61E-02 mGy/MBq; Estimated Absorbed Dose of Organ, Average: Osteogenic Cells [2]: 2.13E-02 mGy/MBq; Estimated Absorbed Dose of Organ, Average: Ovaries [2]: 3.85E-02 mGy/MBq; Estimated Absorbed Dose of Organ, Average: Pancreas [2]: 1.53E-02 mGy/MBq; Estimated Absorbed Dose of Organ, Average: Red Marrow [2]: 1.52E-02 mGy/MBq; Estimated Absorbed Dose of Organ, Average: Skin [2]: 1.08E-02 mGy/MBq; Estimated Absorbed Dose of Organ, Average: Small Intestine [2]: 2.41E-02 mGy/MBq; Estimated Absorbed Dose of Organ, Average: Spleen [2]: 1.45E-02 mGy/MBq; Estimated Absorbed Dose of Organ, Average: Stomach Wall [2]: 1.50E-02 mGy/MBq; Estimated Absorbed Dose of Organ, Average: Thymus [2]: 1.25E-02 mGy/MBq; Estimated Absorbed Dose of Organ, Average: Thyroid [2]: 1.15E-02 mGy/MBq; Estimated Absorbed Dose of Organ, Average: Total Body [2]: 1.63E-02 mGy/MBq; Estimated Absorbed Dose of Organ, Average: ULI Wall [2]: 2.11E-02 mGy/MBq; Estimated Absorbed Dose of Organ, Average: Urinary Bladder Wall [2]: 6.07E-01 † mGy/MBq; Estimated Absorbed Dose of Organ, Average: Uterus [2]: 4.81E-02 mGy/MBq; Effective Dose [3]: 2.17E-02 mSv/MBq; Estimated Absorbed Dose of Organ, Adrenals [3]: 6.76E-03 mGy/MBq; Estimated Absorbed Dose of Organ, Brain [3]: 2.27E-03 mGy/MBq; Estimated Absorbed Dose of Organ, Breasts [3]: 4.34E-03 mGy/MBq; Estimated Absorbed Dose of Organ, Gallbladder Wall [3]: 7.11E-03 mGy/MBq; Estimated Absorbed Dose of Organ, Heart Wall [3]: 1.28E-02 mGy/MBq; Estimated Absorbed Dose of Organ, Kidneys [3]: 2.74E-02 ‡ mGy/MBq; Estimated Absorbed Dose of Organ, LLI Wall [3]: 5.51E-02 § mGy/MBq; Estimated Absorbed Dose of Organ, Liver [3]: 7.32E-03 mGy/MBq; Estimated Absorbed Dose of Organ, Lungs [3]: 6.59E-03 mGy/MBq; Estimated Absorbed Dose of Organ, Muscle [3]: 6.45E-03 mGy/MBq; Estimated Absorbed Dose of Organ, Osteogenic Cells [3]: 8.36E-03 mGy/MBq; Estimated Absorbed Dose of Organ, Pancreas [3]: 6.93E-03 mGy/MBq; Estimated Absorbed Dose of Organ, Red Marrow [3]: 6.11E-03 mGy/MBq; Estimated Absorbed Dose of Organ, Skin [3]: 4.44E-03 mGy/MBq; Estimated Absorbed Dose of Organ, Small Intestine [3]: 9.30E-03 mGy/MBq; Estimated Absorbed Dose of Organ, Spleen [3]: 6.39E-03 mGy/MBq; Estimated Absorbed Dose of Organ, Stomach Wall [3]: 6.44E-03 mGy/MBq; Estimated Absorbed Dose of Organ, Testes [3]: 8.41E-03 mGy/MBq; Estimated Absorbed Dose of Organ, Thymus [3]: 5.44E-03 mGy/MBq; Estimated Absorbed Dose of Organ, Thyroid [3]: 5.10E-03 mGy/MBq; Estimated Absorbed Dose of Organ, ULI Wall [3]: 8.07E-03 mGy/MBq; Estimated Absorbed Dose of Organ, Urinary Bladder Wall [3]: 1.75E-01 † mGy/MBq; Estimated Absorbed Dose, Total Body [3]: 6.69E-03 mGy/MBq; Effective Dose (mSv/MBq), Average ± SD [4]: 2.71E-02 mSv/MBq; Estimated Absorbed Dose of Organ, Average: Adrenals [4]: 1.41E-02 mGy/MBq; Estimated Absorbed Dose of Organ, Average: Brain [4]: 4.10E-03 mGy/MBq; Estimated Absorbed Dose of Organ, Average: Breasts [4]: 1.02E-02 mGy/MBq; Estimated Absorbed Dose of Organ, Average: Gallbladder Wall [4]: 1.36E-02 mGy/MBq; Estimated Absorbed Dose of Organ, Average: Heart Wall [4]: 1.39E-02 mGy/MBq; Estimated Absorbed Dose of Organ, Average: Kidneys [4]: 1.95E-02 § mGy/MBq; Estimated Absorbed Dose of Organ, Average: LLI Wall [4]: 6.76E-02 ‡ mGy/MBq; Estimated Absorbed Dose of Organ, Average: Liver [4]: 8.65E-03 mGy/MBq; Estimated Absorbed Dose of Organ, Average: Lungs [4]: 1.10E-02 mGy/MBq; Estimated Absorbed Dose of Organ, Average: Muscle [4]: 1.29E-02 mGy/MBq; Estimated Absorbed Dose of Organ, Average: Osteogenic Cells [4]: 2.00E-02 mGy/MBq; Estimated Absorbed Dose of Organ, Average: Ovaries [4]: 2.14E-02 mGy/MBq; Estimated Absorbed Dose of Organ, Average: Pancreas [4]: 1.47E-02 mGy/MBq; Estimated Absorbed Dose of Organ, Average: Red Marrow [4]: 1.23E-02 mGy/MBq; Estimated Absorbed Dose of Organ, Average: Skin [4]: 9.76E-03 mGy/MBq; Estimated Absorbed Dose of Organ, Average: Small Intestine [4]: 1.64E-02 mGy/MBq; Estimated Absorbed Dose of Organ, Average: Spleen [4]: 1.38E-02 mGy/MBq; Estimated Absorbed Dose of Organ, Average: Stomach Wall [4]: 1.41E-02 mGy/MBq; Estimated Absorbed Dose of Organ, Average: Thymus [4]: 1.28E-02 mGy/MBq; Estimated Absorbed Dose of Organ, Average: Thyroid [4]: 1.16E-02 mGy/MBq; Estimated Absorbed Dose of Organ, Average: Total Body [4]: 1.31E-02 mGy/MBq; Estimated Absorbed Dose of Organ, Average: ULI Wall [4]: 1.62E-02 mGy/MBq; Estimated Absorbed Dose of Organ, Average: Urinary Bladder Wall [4]: 1.54E-01 † mGy/MBq; Estimated Absorbed Dose of Organ, Average: Uterus [4]: 2.28E-02 mGy/MBq
